Legend:
h-CA I [1] = molecular target: T1, h-CA I (Homo sapiens, UniProt P00915); experiment: Esterase activity assay (4-nitrophenyl acetate), h-CA I; format: biochemical; set-up: purchased Sigma C4396; conditions: h-CA I 2 µM; 57 °C; noncompetitive inhibition fit; read-out: Ki (µM), from enzyme assay
Description: Carbonic anhydrase activity (h-CA I and b-CA II) was measured using a spectrophotometer (Molecular Devices, SpectraMax® i3x) as described elsewhere[73]. h-CA I was used at a final concentration of 2 µM and b-CA II was used at a final concentration of 0.5 µM in the buffer: 100 mM NaCl, 20 mM TRIS, pH 6.1, 1% DMSO. […] All reactions of h-CA I took place at 57 °C and reactions of b-CA II took place at 60 °C. […] Enzyme initial velocity was plotted with different substrate concentration using Prism6. Data were collected for each of the four inhibitors, and the change in initial velocities were analyzed with the “Enzyme-noncompetitive inhibition” equation in Prism6.

h-CA I [2] = molecular target: T1, h-CA I; experiment: SYPRO Orange DSF, isothermal analysis, carbonic anhydrase h-CA I
Description: All proteins (MBP, h-CA I and b-CA II) were used at a final concentration of 2 µM for this assay. SYPRO Orange (Invitrogen S6651) was used at a final concentration of 20X for MBP, and at 10X for the carbonic anhydrases. […] Carbonic anhydrase experiments were carried out in 100 mM NaCl, 20 mM TRIS, 1% DMSO, pH 6.1.
All DSF experiments were carried out with Eppendorf Realplex2 Mastercycler. Each sample was divided to three 50 µL replicates. Sample solutions were dispensed into 96-well optical reaction plate (Thermo Fisher Scientific 4306737) and the plate was sealed with optical PCR plate sheet (Thermo Fisher Scientific AB-1170). Fluorescence intensity was measured via the JOE emission filter (550 nm) and “PTS clear plate” was set as the background for the calibration. […] Melting curves were directly exported from the instrument, and then were analyzed with Prism 6 (GraphPad Software Inc.).
DSF data were analyzed in three steps. First, raw fluorescence data as a function of temperature were fit to a modified form of the thermodynamic equation, as follows:22 ΔG=ΔH(1−T/Tm)−ΔCp(Tm−T+Tln[T/Tm]) 23 KU=e^−ΔG/RT 24 Y(T)=[1/1+KU(mFT+bF)]+[KU/1+KU(mUT+bU)]
Here Equation 24 relates the observed fluorescence signal, Y, as a function of temperature (T). The two terms in this equation correspond to contributions from folded and unfolded protein, respectively. […]

MBP = conditions: read-out: Kd reported in previous studies; cited from earlier work

T1 sequence (P00915 whole entry): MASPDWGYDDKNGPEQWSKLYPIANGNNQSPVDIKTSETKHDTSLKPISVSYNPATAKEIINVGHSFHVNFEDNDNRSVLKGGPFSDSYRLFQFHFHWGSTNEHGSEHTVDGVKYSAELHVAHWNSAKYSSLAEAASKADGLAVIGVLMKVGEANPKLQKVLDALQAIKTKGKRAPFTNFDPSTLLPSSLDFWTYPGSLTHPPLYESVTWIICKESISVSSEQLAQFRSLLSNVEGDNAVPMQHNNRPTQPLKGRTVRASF

NS(=O)(=O)C(F)(F)F [TFMSA, trifluoromethanesulfonamide]
Ki (h-CA I [1]): < 1 µM
EC50 (h-CA I [2]): 1.4 µM
Kd (h-CA I [2]; Kd (µM), from DSF, h-CA I, 57 °C, 2 µM protein, no denaturant): < 0.5 µM

OC[C@H]1O[C@H](O[C@H]2[C@H](O)[C@@H](O)C(O)O[C@@H]2CO)[C@H](O)[C@@H](O)[C@@H]1O (mixture of isomers) [maltose]
Kd (MBP): 0.5 to 2 µM
